The test concerns C57BL/6 mice. Description: Tail suspension test (TST). It counts as in vivo. To be noted: acute i.p. pretreatment, ST-2300 10 or 15 mg/kg, PIM 5–15 mg/kg, FLX 10 mg/kg, vs saline controls, C57BL/6 mice, 6 min. As to the method: Inbred adult male C57BL/6 mice (aged 10–12 weeks and weighing 20–25 g) were obtained from the animal facility in the College of Medicine and Health Sciences, United Arab Emirates University. The animals were maintained in a separate air-conditioned room with controlled temperature and humidity (24 ± 2 °C and 55 ± 15%, respectively), with a 12 h light/dark cycle, and ad libitum to food and water. All the experiments were performed between 9.00 am and 3.00 pm. The procedures were approved by the Institutional Animal Ethics Committee of College of Medicine and Health Sciences/United Arab Emirates University (Approval No. ERA-2019-6010). To reduce the suffering of the animals, a minimum number of animals were used in this study, whereas the objectives were not compromised.
These experiments provide the first behavioral assessment of the ST-2300 in anxiety-like and depression-like behaviors in mice. All doses are expressed in terms of the free base of all test compounds. The drugs used in the current study were dissolved in saline and injected i.p. at a volume of 1 mL/kg. All experimental procedures were conducted in a blinded fashion in which the experimenter was uninformed about the specific treatment groups to which an animal group belonged. Saline, ST-2300 (5, 10, and 15 mg/kg), PIM (5, 10, and 15 mg/kg), FLX (10 mg/kg), RAM (10 mg/kg), and DZP (1 mg/kg) were injected i.p. 30–45 min before the beginning of the behavioral experiments.
This experimental protocol was followed as previously described, however with slight modifications. Each mouse was suspended on the edge of a rod 50 cm above a table top using adhesive Scotch tape placed approximately 1 cm from the tip of the tail. Tail climbing was prevented by passing the mouse’s tail through a small plastic cylinder prior to suspension, as described by Can et al.. The duration of immobility was manually scored for a 6 min observation period. Mice were considered immobile only when they hung down passively and were completely motionless. The parameter recorded was the number of seconds spent immobile.

As to `CNCCC(Oc1ccc(C(F)(F)F)cc1)c1ccccc1` (stereo not shown) [FLX, fluoxetine, reference compound], the “immobility time in TST” value is “significant differences between FLX and saline controls”.

Values taken from paper PMC9138994 (Biomolecules, 2022).
